Measurements from patent US20240261292A1, “COMBINATION THERAPIES” (Janssen Pharmaceutica NV, priority 2021, published 2024).
Structures can show the parent of a compound that is named as a salt.

How the values were obtained:
OCI-AML3 cells = test: Proliferation assay (spheroid), OCI-AML3; type: cell-based, human; settings: Homo sapiens, OCI-AML-3, […], 8 days
Procedure: (§1) The anti-proliferative effect of menin/MLL protein/protein interaction inhibitor test compounds was assessed inhuman leukemia cell lines. The cell line MOLM-14 harbors a MLL translocation and expresses the MLL fusion protein MLL-AF9, respectively, as well as the wildtype protein from the second allele. OCI-AML3 cells that carry the NPM1c gene mutation were also tested. […] KO-52 was used as a control cell line containing two MLL (KMT2A) wildtype alleles in order to exclude compounds that display general cytotoxic effects.
(§2) KO-52 and OCI-AML3 cell lines were propagated in alpha-MEM (Sigma Aldrich) supplemented with 20% heat-inactivated fetal bovine serum (HyClone), 2 mM L-glutamine (Sigma Aldrich) and 50 μg/ml gentamycin (Gibco).
In order to assess the anti-proliferative effects, 200 MOLM-14 cells, 200 OCI-AML3 cells or 300 KO-52 cells were seeded in 200 μl media per well in 96-well round bottom, ultra-low attachment plates (Costar, catalogue number 7007). Cell seeding numbers were chosen based on growth curves to ensure linear growth throughout the experiment. Test compounds were added at different concentrations and the DMSO content was normalized to 0.3%. Cells were incubated for 8 days at 37° C. and 5% CO2. Spheroid like growth was measured in real-time by live-cell imaging (IncuCyteZOOM, Essenbio, 4× objective) acquiring images at day 8. Confluence (%) as a measure of spheroid size was determined using an integrated analysis tool.
In order to determine the effect of the test compounds over time, the confluence in each well as a measure of spheroid size, was calculated. Confluence of the highest dose of a reference compound was used as baseline for the LC (Low control) and the confluence of DMSO treated cells was used as 0% cytotoxicity (High Control, HC).
HC=High Control: Mean confluence (%) (DMSO treated cells);
Dose-response equation was used for the plot of % Effect vs Log10 compound concentration with a variable slope and fixing the maximum to 100% and the minimum to 0%. 2b) MEIS1 mRNA Expression Assay

KO-52 cells = test: Proliferation assay (spheroid), KO-52 control cell line; type: cell-based; settings: Homo sapiens, 8 days, read-out: spheroid assay_OneTime KO-52 IC50
Procedure: as §1, §2
In order to assess the anti-proliferative effects, 200 MOLM-14 cells, 200 OCI-AML3 cells or 300 KO-52 cells were seeded in 200 μl media per well in 96-well round bottom, ultra-low attachment plates (Costar, catalogue number 7007). […] Spheroid like growth was measured in real-time by live-cell imaging (IncuCyteZOOM, Essenbio, 4× objective) acquiring images at day 8. Confluence (%) as a measure of spheroid size was determined using an integrated analysis tool.
In order to determine the effect of the test compounds over time, the confluence in each well as a measure of spheroid size, was calculated. […]

[1] = test system: iCell Cardiomyocytes2 (hSC-CMs); test: Ca2+-fluorescence assay in human pluripotent stem cell-derived cardiomyocytes (CTCM human); type: cell-based; parameters: key to Hazard Scoring Color @ 0.1 μM / Hazard Scoring Color @ 0.2 μM / Hazard Scoring Color @ 0.5 μM / Hazard Scoring Color @ 1 μM / Hazard Scoring Color @ 2.5 μM / Hazard Scoring Color @ 5 μM / Hazard Scoring Color @ 0.3 μM / Hazard Scoring Color @ 3 μM / Hazard Scoring Color @ 10 μM / Hazard Scoring Color @ 30 μM: Green: No concern; Yellow: Low concern; Red: High concern; Black: Very high concern due to arrhythmic events; settings: 30 min
Procedure: 7) Cardio-Electrophysiological Effects of the Testing Compounds in Synchronously Beating Human Pluripotent Stem Cell-Derived Cardiomyocytes (hSC-CMs) Using a Ca^2+-Fluorescence Assay (CTCM Human)
Compounds were tested in the 96-well plates.
Compounds were tested at 0.1 μM, 0.2 μM, 0.5 μM, 1 μM, 2.5 μM and 5 μM (n=4 per dose) on Cor.4U®-Cardiomyocytes or on iCell® Cardionyocytes2.
Alternatively, compounds were tested at 0.1 μM, 0.3 μM; 1 μM, 3 μM, 10 μM and 30 μM (n=4 per dose) mostly on iCell® Cardiomyocytes2.
Vehicle control: Dimethylsulfoxide (DMSO). The solutions of the compound in DMSO or its solvent (final concentration of 0.1% DMSO; n=8).
Tested compounds were dissolved in DMSO at 1000-fold the intended concentrations. A compound “mother-plate” was made, containing the test compounds and positive and negative controls at 1000-fold the final concentrations. At the experiment day, these stock solutions were diluted with Tyrode (Sigma), supplemented with 10 mM HEPES (Gibco), to 2-fold the intended concentration (in round bottom compound plates). Final DMSO concentration in test solutions and vehicle control was 0.1%.
hSC-CMs (Cor.4U® Cardiomyocytes) were obtained from CDI (Ncardia, Germany). Cells are pre-plated and seeded in fibronectin-coated 96-well plates at a density suited to form a monolayer and maintained in culture in a stage incubator (37° C., 5% CO2), according to the instructions of the cell provider.
Second line hSC derived cardiomyocyte called iCell® Cardiomyocytes2 were purchased from FUJIFILM Cellular Dynamics (USA). The experiments with test drugs are carried out 5 to 7 days after plating the cells onto the plate to have a living, beating monolayer of hiPSC-derived cardiomyocytes. The beating monolayer in 96-well-plates are normally taken from 2 Vials of frozen iCell® Cardiomyocytes2 (≈5 million cells/vial), which will be plated onto three 96-well plates (≈50K/well).
At least one hour before the start of the experiments the normal cell medium was replaced with Tyrode solution with Calcium dye (see below).
Cal 520 dye (AAT Bioquest) was dissolved in 11 ml of Tyrode supplemented with 10 mM HEPES and warmed up to 37 C before adding to the cells.
35 μl cell culture medium was removed from each well and replaced with 35 μl of pre-warmed Cal 520 dye solution and cell plate was incubated for 45 min at 37° C./5% CO2. Cells were incubated for 5 min at 37° C.
Spontaneous electrical activity is recorded, using Cal520™ (AAT Bioquest) calcium fluorescence-dye signalling. This dye integrates the total intracellular calcium activity over the whole well. A bottle of Ca1520 dye (50 μg, MW: 1103/mol) is dissolved with 50 μl DMSO as a stock solution of 0.9 mM. 50 μL of the stock solution of the dye was added to 10 ml Tryodes solution to have dye concentration of 4.5 μM. Subsequently, 35 μl of this dye solution was added into each well, to have a final dye concentration of 1.58 μM. The current dye protocol on this CTCM human assay was established recently (Ivan Kopljar et al, Journal of Pharmacological and toxicological methods 2018. 91: 80-86; Lu et al., Tox Sci 2019. 170 (2): 345-356).
Fluorescent signals (Ca^2+ transient morphology) were measured using the Functional Drug Screen System (FDSS/μCell; Hamamatsu, Japan) and the recordings were subsequently analyzed off-line, using appropriate software e.g., Notocord.
The cell plate was loaded into the FDSS/μCell for a test run: Ca^2+ transients were measured for 4 minutes to check for synchronous beating of the cardiomyocytes in each well. All 96 wells were measured simultaneously (sampling interval: 0.06 s, short exposure time: 10 ms; excitation wavelength 480 nm; emission wavelength 540 nm; FDSS/μCell warmed to 37° C.).
During the compound addition step, 100 μl of the respective double-concentrated test solutions was pipetted into each well simultaneously.
Data were analyzed off-line using appropriate software e.g., Notocord-Hem (version 4.3). […]

[2] = iCell Cardiomyocytes2 (Table 12)
[3] = iCell Cardiomyocytes2 (Table 11)

For `CCN(C(=O)c1cc(F)ccc1Oc1nncnc1N1CCC2(C1)CN([C@H](CCCNCCOC)C(C)C)C2)C(C)C` [Compound 11, (R)-N-ethyl-5-fluoro-N-isopropyl-2-((5-(2-(6-((2-methoxyethyl)amino)-2-methylhexan-3-yl)-2,6-diazaspiro[3.4]octan-6-yl)-1,2,4-triazin-6-yl)oxy)benzamide], the IC50 (OCI-AML3 cells) was 0.21 µM, the IC50 (KO-52 cells) was 8.38 µM and the “Hazard Scoring Color @ 0.1 μM” value [1, 2] was “Green”. The “Hazard Scoring Color @ 0.3 μM” value ([1]; 0.3 μM, iCell Cardiomyocytes2 (Table 12)) was “Green”, the “Hazard Scoring Color @ 1 μM” value [1, 2] was “Green” and the “Hazard Scoring Color @ 3 μM” value ([1]; 3 μM, iCell Cardiomyocytes2 (Table 12)) was “Green”. For the same compound, the “Hazard Scoring Color @ 10 μM” value ([1]; 10 μM, iCell Cardiomyocytes2 (Table 12)) was “Green” and the “Hazard Scoring Color @ 30 μM” value ([1]; 30 μM, iCell Cardiomyocytes2 (Table 12)) was “Green”.

For `CCN(C(=O)c1cc(F)ccc1Oc1nncnc1N1CCC2(C1)CN([C@H](CCCN(C)CCOC)C(C)C)C2)C(C)C` [Compound A3, (R)-N-ethyl-5-fluoro-N-isopropyl-2-((5-(2-(6-((2-methoxyethyl) (methyl)amino)-2-methylhexan-3-yl)-2,6-diazaspiro[3.4]octan-6-yl)-1,2,4-triazin-6-yl)oxy) benzamide oxalate], the IC50 (OCI-AML3 cells) was 0.12 µM, the IC50 (KO-52 cells) was 7.75 µM and the “Hazard Scoring Color @ 0.1 μM” value [1, 3] was “Green”. The “Hazard Scoring Color @ 0.2 μM” value ([1]; 0.2 μM, iCell Cardiomyocytes2 (Table 11)) was “Green”, the “Hazard Scoring Color @ 0.5 μM” value ([1]; 0.5 μM, iCell Cardiomyocytes2 (Table 11)) was “Green” and the “Hazard Scoring Color @ 1 μM” value [1, 3] was “Green”. The “Hazard Scoring Color @ 2.5 μM” value ([1]; 2.5 μM, iCell Cardiomyocytes2 (Table 11)) was “Green” and the “Hazard Scoring Color @ 5 μM” value ([1]; 5 μM, iCell Cardiomyocytes2 (Table 11)) was “Green”.
